Measured values from patent EP0528583A1, “Isolation and structure of the cell growth inhibitory cycloheptapeptide axinastatin 1” (ARIZONA BOARD OF REGENTS, priority 1991, dated 1993).
Residues, ends and D or L forms follow the SMILES beside them.

Assays:
[1] = system: NCI murine P388 lymphocytic leukemia cell line; assay: P388 (PS system) lymphocytic leukemia cell growth inhibition in culture, NCI protocol; format: cell-based; conditions: concentration required to inhibit growth of tumor cells in culture by 50 percent
Description: (§1) The isolation and purification methods chosen can be monitored at each step by performing in-vitro and/or in-vivo antitumor tests as described by R. I. Geran, N.H. Greenberg, M. M. MacDonald, A.M. Schumacher and B. S. Abbot in Cancer Chemotherapy Rep., Part 3, Vol 3: 1-103 (1972); and by Schmidt, J. M.; Pettit, G. R. in Experientia 1978, 34: 659-660. Such tests include the determination of the concentration of active material required to inhibit the growth of tumor cells in culture, (e.g. the concentration required to inhibit growth by 50 percent or the E.D.₅₀) and of the dose of active material required to prolong the life of mice bearing transplanted tumors ("life extension").

[2] = system: P388 lymphocytic leukemia; assay: In vivo P388 (PS) lymphocytic leukemia life extension, NCI protocol; parameters: species or system mice; conditions: in vivo P388 lymphocytic leukemia system; dose not given
Description: as §1

With CC(C)[C@@H]1NC(=O)[C@H](Cc2ccccc2)NC(=O)[C@@H]2CCCN2C(=O)[C@H](CC(N)=O)NC(=O)[C@H](C(C)C)NC(=O)[C@@H]2CCCN2C(=O)[C@H](C(C)C)NC1=O [axinastatin 1, cyclo (Asn-Pro-Phe-Val-Val-Pro-Val)] (cyclo(FVVPVNP)) the “PS ED₅₀” value [1] was 0.21 µg/mL and the life extension [2] was 20%.
